Test results published in PubChem BioAssay (NCI).
Values joined by “and” are separate entries in the source; they are usually repeats but may differ in a detail not shown here. Identical values can stand only once.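 Interpolation was linear, between the two tested concentrations surrounding the appropriate level; five concentrations were tested over 48 hours in 96-well plates. At the GI50, growth is halved. TGI denotes the concentration required for complete inhibition of growth.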

Tests used:
Experiment in all cases: NCI-60 cell line screen, 48 h
[1] = system: EKVX NSCLC
[2] = system: HT29 colon
[3] = system: NCI-H460 lung
[4] = system: NCI-H522 lung
[5] = system: NCI/ADR-RES ovarian
[6] = system: SF-268 CNS
[7] = system: SN12C renal
[8] = system: TK-10 renal
[9] = system: UACC-257 melanoma
[10] = system: UACC-62 melanoma

SMILES	GI50 [1] [µM]	TGI [1] [µM]	GI50 [2] [µM]	TGI [2] [µM]	GI50 [3] [µM]	TGI [3] [µM]	GI50 [4]	TGI [4] [µM]	GI50 [5] [µM]	TGI [5] [µM]	GI50 [6] [µM]	TGI [6] [µM]	GI50 [7] [µM]	TGI [7] [µM]	GI50 [8] [µM]	TGI [8] [µM]	GI50 [9] [µM]	TGI [9] [µM]	GI50 [10] [µM]	TGI [10] [µM]
C[C@]12CC[C@@H](OC(=O)N(CCCl)N=O)C[C@@H]1CC[C@@H]1[C@@H]2CC[C@]2(C)C(=O)CC[C@@H]12	6.5	> 43.7	3.26	15.9	0.247	1.75	9.06 µM	30.8	4.88	30.2	0.632	18.9	8.01	23.3	12	33.1	3.99	23.9	1.46	25.6
C/C(=C(/c1ccc(O)cc1)c1ccc(Cl)cc1)c1ccccc1	0.698	2.12	0.852	3.17	0.471	0.945	0.739 µM	2.8	0.668	1.89	0.582	1.61	0.466	0.977	1.72	5	0.822	2.77	0.473	1.06
[N-]=[N+]=CC(=O)COC(=O)c1ccccc1		> 100		> 100		> 100		> 100		> 100		> 100		> 100		> 100		> 100		> 100
NC(=S)N/N=C1\CCCC1C(O)(C(F)(F)Cl)C(F)(F)Cl (configuration not stated)		> 10		> 10		> 10		> 10		> 10		> 10		> 10		> 10		> 10		> 10
CC(=O)Nc1ccc(/C=C2/NC(=S)N(/C=C3\C(=O)Oc4ccccc4C3=O)C2=O)cc1		> 100		> 100		> 100		> 100		> 100		> 100		> 100		> 100		> 100		> 100
C/C(=N\NC(=S)N1CCN(c2ccccn2)CC1)c1nccs1	0.0334	10.6		33.7		2.3	0.0574 µM and 0.261 µM	16.3	0.279	2.56		> 54.2		15.9		20		12.8		0.834
CC(C)(C)n1cc(-c2ccnc(NCCCNS(=O)(=O)c3ccc(Br)cc3)c2)c(-c2cccc(O)c2)n1	1.95	4.58	1.42	3.79	1.99	3.99	2.13 µM	4.55	2.21	5.03	2.4	6.48	1.61	3.01	2.51	6.62	2.01	4.33	1.59	3.06
Nc1nc(N)nc(CC(=O)O)n1		> 100		> 100		> 100		> 100		> 100		> 100		> 100		> 100		> 100		> 100
CC[C@@]12C=CCN3CC[C@]4(c5cc(NC(=O)COc6cc(OCC(=O)Nc7cc8c(cc7OC)N(C)[C@H]7[C@@](O)(C(=O)OC)[C@H](OC(C)=O)[C@]9(CC)C=CCN%10CC[C@]87[C@@H]%109)cc7oc(-c8ccccc8)cc(=O)c67)c(OC)cc5N(C)[C@@H]4[C@](O)(C(=O)OC)[C@H]1OC(C)=O)[C@H]32	3.28	> 100	3.42	> 100	2.55	7.15	2.15 µM	6.03	> 100	> 100			7.27	> 100	12.3	61.7	> 100	> 100	20.1	64.6
NNS(=O)(=O)c1cc(C(=O)O)cc(C(=O)O)c1		> 100		> 100		> 100		> 100		> 100		> 100		> 100		> 100		> 100		> 100
CC[C@]1(O)C[C@@H]2CN(CCc3c([nH]c4ccccc34)[C@@](C(=O)OC)(c3cc4c(cc3OC)N(C)[C@H]3[C@@](O)(C(N)=O)[C@H](O)[C@]5(CC)[C@@H]6C[C@@H]6CN6CC[C@]43[C@@H]65)C2)C1	0.0624	> 33.3	< 0.00333		0.00366	> 33.3	< 0.00333 µM	< 0.00333	0.745	> 9.84	0.00352	> 33.3	0.0373	> 33.3	13	> 33.3	> 33.3	> 33.3	< 0.00333	> 33.3
COC(=O)c1ccc2c(c1)C(=O)c1c-2n(CCCN)c(=O)c2cc(OC)c(OC)cc12	17.7	38.6	13.8	31.4	13	29.5	17.1 µM	37.2	42.6	> 100	18.6	42	14.9	31.4	16.9	37.3	14.5	> 41.5	15.4	30.2
COc1nc(C)cc2c(=O)n(-c3ccccc3)n(CC(O)CN3CCN(c4ccc(Cl)cc4)CC3)c(=O)c12 (configuration not stated)	> 50	> 50	> 50	> 50	> 50	> 50	25.8 µM	> 50	> 50	> 50	24.8	> 50	> 50	> 50	> 50	> 50			46.6	> 50
CC(=O)c1cc(-c2ccccc2N)n(-c2ccc3c(c2)OCO3)c1C	0.392	> 100	0.292	> 35.6	0.169	13.2	0.139 µM	5.49	0.211		0.4	> 100	0.135	> 100	0.623	> 100	27.3	> 100	0.227	23
